Five compounds from US12391991B2, “Markers to predict macrocyclic lactone drug resistance in Dirofilaria immitis, the causative agent of heartworm disease” (priority 2013, dated 2025) can be followed below.

Entries after “also recorded” stand apart in the source; their conditions may differ. Like-named read-outs stand apart in the source and are kept apart here. Marks after values point to notes of the source that are not given here.

In data set [1] the test system is D. immitis microfilariae (LOE isolate case 4). Conditions: in vivo.
Data set [2] concerns D. immitis (LOE isolate case 5). Also noted: species or system Dirofilaria immitis. Conditions: in vivo.
The subject of data set [3] is D. immitis microfilariae. Also on record: species or system Dirofilaria immitis. The note with it: in vivo.
Data set [4] relates to D. immitis mf from dog Jd2009. The class given is cell-based, Dirofilaria immitis.
The test system of data set [5] is D. immitis Jd2009-2 isolate. Also noted: species or system Dirofilaria immitis. Conditions: in vivo.
The test system of data set [6] is adult heartworms (D. immitis). Also on record: species or system Dirofilaria immitis. Conditions: in vivo.
Data set [7] deals with D. immitis (LOE isolate case 2). Also noted: species or system Dirofilaria immitis. The note with it: in vivo.

Turning to `CC[C@H](C)[C@H]1O[C@]2(CC[C@@H]1C)C[C@@H]1C[C@@H](C/C=C(\C)[C@@H](O[C@H]3C[C@H](OC)[C@@H](O[C@H]4C[C@H](OC)[C@@H](O)[C@H](C)O4)[C@H](C)O3)[C@@H](C)/C=C/C=C3\CO[C@@H]4[C@H](O)C(C)=C[C@@H](C(=O)O1)[C@]34O)O2` [IVM, ivermectin], in data set [1], the “Knott's test” value is “again positive” and the “Knott's tests” value was “both positive”. The “mf status during weekly dosing” value in data set [2] is listed as “remained positive for mf”. Moreover, in data set [3], the “Knott's test result” value is on record as “Knott's test +ve^a” and the Microfilaremic status entry was “remained continually microfilaremic; also recorded: still microfilaremic”. In addition, the “Microfilariae concentration in blood” value in data set [3] (po) was ≥100^b mf/ml. Further, in data set [4], the “Sensitivity of mf to drug” value is given as “significantly less sensitive”.
As for `CO[C@H]1C[C@H](O[C@@H]2/C(C)=C/C[C@@H]3C[C@@H](C[C@]4(CC[C@H](C)[C@@H](C5CCCCC5)O4)O3)OC(=O)[C@@H]3C=C(C)/C(=N/O)[C@H]4OC/C(=C\C=C\[C@@H]2C)[C@]43O)O[C@@H](C)[C@@H]1O` [SEL, selamectin], in data set [5], the “Outcome of monthly chemoprophylaxis as recommended” value is recorded as “at least one dog in groups of four to six dogs on these heartworm preventatives became infected”.
In the case of `CCN(CC)C(=O)N1CCN(C)CC1` [diethylcarbamazine], in data set [1], the Blood smear entry is on record as “no mf” and the “Side effects of the treatment” value is recorded as “No side effects”.
Take `Cl.Cl.NCCS[As](SCCN)c1ccc(Nc2nc(N)nc(N)n2)cc1` [melarsomine dihydrochloride]: the “D. immitis antigen test” value in data set [6] is on record as “negative”. Moreover, in data set [6] (dihydrochloride), the “Antigen test Name-result (+ve or −ve)” value is listed as “SNAP −ve^a; also recorded: DiroChek −ve^c; also recorded: PetChek −ve^a”.
With milbemycin oxime [MO], the “Knott's test” value in data set [1] (po) was “positive”. Also, the “Outcome of monthly chemoprophylaxis as recommended” value in data set [5] is “at least one dog in groups of four to six dogs on these heartworm preventatives became infected”. For the same compound, the Heartworm antigen test result in data set [2] is “positive heartworm antigen test”. Also, in data set [3], the “Knott's test result” value was “Knott's test +ve^a; also recorded: Knott's test +ve^c”, the Microfilaremic status entry is listed as “remained continually microfilaremic”, the “Microfilariae concentration in blood” value is given as ≥100^b mf/ml and the Microfilariae in blood entry is reported as “microfilariae were still present”. The Heartworm antigen status entry in data set [7] is given as “heartworm antigen positive”.
